Patent US9902714B2, “Quinoxaline derivatives useful as FGFR kinase modulators” (ASTEX THERAPEUTICS LTD, priority 2014, dated 2018)

Key:
VEGFR2 = VEGFR2 (Homo sapiens (Human), UniProt P35968); assay: Enzyme binding assay (KINOMEscan) VEGFR2
FGFR4 = FGFR4 (Homo sapiens (Human), UniProt P22455); assay: Enzyme binding assay (KINOMEscan) FGFR4
Sequence of FGFR4 (P22455 22-802): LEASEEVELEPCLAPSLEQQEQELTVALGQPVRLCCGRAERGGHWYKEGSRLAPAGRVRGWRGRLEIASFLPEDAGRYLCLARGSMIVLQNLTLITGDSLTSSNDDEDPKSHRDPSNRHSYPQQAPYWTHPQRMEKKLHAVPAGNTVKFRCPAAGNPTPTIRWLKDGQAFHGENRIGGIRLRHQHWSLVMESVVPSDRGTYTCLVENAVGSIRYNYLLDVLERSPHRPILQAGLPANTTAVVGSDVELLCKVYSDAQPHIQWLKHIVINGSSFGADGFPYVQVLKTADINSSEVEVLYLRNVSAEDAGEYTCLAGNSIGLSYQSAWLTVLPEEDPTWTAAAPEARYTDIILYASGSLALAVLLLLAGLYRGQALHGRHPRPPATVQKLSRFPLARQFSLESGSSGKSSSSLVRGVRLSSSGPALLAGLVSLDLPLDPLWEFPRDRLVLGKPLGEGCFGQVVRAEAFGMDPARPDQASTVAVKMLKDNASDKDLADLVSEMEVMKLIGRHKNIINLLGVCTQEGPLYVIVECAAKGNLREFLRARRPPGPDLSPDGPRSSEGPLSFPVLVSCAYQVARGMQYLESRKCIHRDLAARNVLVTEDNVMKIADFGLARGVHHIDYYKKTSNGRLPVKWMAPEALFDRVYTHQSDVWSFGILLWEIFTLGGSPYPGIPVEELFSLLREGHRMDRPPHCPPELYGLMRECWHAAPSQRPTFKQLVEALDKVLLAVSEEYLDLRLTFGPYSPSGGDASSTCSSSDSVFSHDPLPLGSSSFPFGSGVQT

Sequence of VEGFR2 (P35968 20-1356): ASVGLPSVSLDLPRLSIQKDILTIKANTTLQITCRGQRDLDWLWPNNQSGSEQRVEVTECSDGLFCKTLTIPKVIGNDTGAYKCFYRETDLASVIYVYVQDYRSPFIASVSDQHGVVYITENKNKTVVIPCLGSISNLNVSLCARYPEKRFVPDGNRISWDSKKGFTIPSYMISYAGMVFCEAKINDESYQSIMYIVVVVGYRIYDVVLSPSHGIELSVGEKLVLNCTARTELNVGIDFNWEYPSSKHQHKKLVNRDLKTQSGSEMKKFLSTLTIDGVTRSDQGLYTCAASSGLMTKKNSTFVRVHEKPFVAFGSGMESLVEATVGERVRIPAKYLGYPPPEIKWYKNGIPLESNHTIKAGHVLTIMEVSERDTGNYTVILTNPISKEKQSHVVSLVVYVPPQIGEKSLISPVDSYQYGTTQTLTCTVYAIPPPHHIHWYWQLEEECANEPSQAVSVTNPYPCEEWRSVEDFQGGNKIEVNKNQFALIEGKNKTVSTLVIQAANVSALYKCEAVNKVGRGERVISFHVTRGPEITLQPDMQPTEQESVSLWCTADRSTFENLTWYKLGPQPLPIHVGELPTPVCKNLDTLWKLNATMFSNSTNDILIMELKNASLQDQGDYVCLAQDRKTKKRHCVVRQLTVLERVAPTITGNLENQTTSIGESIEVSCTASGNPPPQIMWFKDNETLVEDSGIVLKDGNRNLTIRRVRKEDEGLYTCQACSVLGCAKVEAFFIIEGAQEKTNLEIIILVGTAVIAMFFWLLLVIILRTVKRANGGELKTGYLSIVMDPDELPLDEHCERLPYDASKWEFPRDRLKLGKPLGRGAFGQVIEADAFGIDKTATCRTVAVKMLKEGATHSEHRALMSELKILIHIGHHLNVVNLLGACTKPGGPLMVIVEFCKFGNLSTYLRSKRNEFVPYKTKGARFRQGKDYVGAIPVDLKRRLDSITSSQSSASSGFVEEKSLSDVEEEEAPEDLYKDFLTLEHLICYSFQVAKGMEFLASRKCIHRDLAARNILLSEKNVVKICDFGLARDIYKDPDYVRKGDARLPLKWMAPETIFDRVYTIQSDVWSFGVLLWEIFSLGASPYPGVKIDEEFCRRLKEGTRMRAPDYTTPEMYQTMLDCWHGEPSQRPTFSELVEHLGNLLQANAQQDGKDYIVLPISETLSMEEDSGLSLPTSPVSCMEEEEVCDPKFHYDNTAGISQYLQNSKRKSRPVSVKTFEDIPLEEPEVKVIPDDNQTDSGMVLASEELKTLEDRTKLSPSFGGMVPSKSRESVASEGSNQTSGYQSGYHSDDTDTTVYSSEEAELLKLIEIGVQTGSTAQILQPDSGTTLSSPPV

Compound	Kd (VEGFR2) [nM]	Kd (FGFR4) [nM]
COc1cc(OC)c2c(c1)N(c1ccc3ncc(-c4cnn(C)c4)nc3c1)CCCN(C(C)C)C2 [Compound 9]	922	355
CCn1cc(-c2cnc3ccc(N4CCN(C(C)C)Cc5c(OC)cc(OC)cc54)cc3n2)cn1 [Compound 7]	1700	230
COc1cc(OC)c2c(c1)N(c1ccc3ncc(-c4cn[nH]c4)nc3c1)CCN(C(C)C)C2 [Compound 2]	741	68
COc1cc(O)c2c(c1)N(c1ccc3ncc(-c4cnn(C)c4)nc3c1)CCN(C(C)C)C2 [Compound 3]	> 3000	1900
COc1cc(O)cc2c1CN(C(C)C)CCN2c1ccc2ncc(-c3cnn(C)c3)nc2c1 [Compound 4]	> 3000	> 3000
CCn1cc(-c2cnc3ccc(N4CCN(C)Cc5c(OC)cc(OC)cc54)cc3n2)cn1 [Compound 6]	> 3000	> 3000
